Reference: PMC8244912, “An oxytocin/vasopressin-related neuropeptide modulates social foraging behavior in the clonal raider ant” (PLoS Biology, 2021)
Entries after “also recorded” stand apart in the source; their conditions may differ.

Assays:
[1] = system: HEK293T cells transfected with an empty vector; experiment: Calcium flux, HEK293T cells transfected with empty vector; assay type: cell-based, human; conditions: ATP 10 μM (cell health control)
Protocol: (§1) Human embryonic kidney 293T (HEK293T) cells were cultured in DMEM supplemented with 10% FBS at 37°C in a tissue culture incubator with a humidified atmosphere containing 5% CO2. Cells were plated in 10-cm dishes, and, when they reached 60% to 70% confluency, they were transfected with a pcDNA3.3 vector containing approximately 1 ng of inotocin receptor cDNA or an empty vector as a control using Lipofectamine 2000. Cells were transfected directly into poly-D-lysine–coated 384-well plates and incubated for 48 hours at 37°C. Subsequently, cells were incubated with FLIPR Calcium 4 Assay kit dye for 1 hour in the incubator. The fluorescence (excitation, 488 nm; emission, 530 nm) of the wells was recorded using a Flex Station II 384 (Molecular Devices, San Jose, California, USA), and a dose curve of inotocin (0 to 3 μM) was applied to the wells, in sextuplicate (see below for inotocin peptide synthesis). We calculated the EC50 values using Prism (GraphPad Software version 8) nonlinear regression, 4-parameter logistic curve fit. Dose curves were repeated at least 3 times on independently prepared samples and different days. Results were consistent across replicates, and example dose curves are shown in Fig 1C and S4A Fig. Control experiments are shown in S2–S5 Figs.

[2] = target: O. biroi inotocin receptor (ObiroiItr_A) (Ooceraea biroi, UniProt A0A8F5LPT9); experiment: Calcium flux, HEK293T cells transfected with full-length inotocin receptor (FLIPR Calcium 4); assay type: cell-based; conditions: for calcium response: HEK293T cells expressing full-length itcR; for LogEC50 / HillSlope: variable slope
Excerpt: RNA was isolated in TRIzol using the RNeasy (Qiagen, Germantown, Maryland, USA) purification kit with DNAse I (Qiagen) on-column digestion as in [52] from a sample that contained adult ants, larvae, and pupae and reverse-transcribed into cDNA. Full-length cDNAs for the O. biroi inotocin receptor were PCR amplified with primers 5′-[…]-3′ and 5′-[…]-3′, using the Easy-A high fidelity polymerase (Agilent, Santa Clara, California, USA) to generate PCR products with 5′-Kozak consensus sequences and 3′-A overhangs. The inotocin receptor cDNAs were cloned into the pcDNA3.3 TOPO TA cloning vector (Invitrogen, Waltham, Massachusetts, USA) following manufacturer’s guidelines.
The full-length inotocin receptor cDNA sequence that was cloned and used for calcium assays is ObiroiItr_A (GenBank MW660838; for protein sequence, see S1 Fig). We also tested splice variant ObiroiItr_H (GenBank MW660845; for protein sequence, see S1 Fig), which lacks TM4-7, for calcium activity.
as §1, with “[…],” for “and a dose curve of inotocin (0 to 3 μM) was applied to the wells,”, “days.” for “days. Results were consistent across replicates, and example dose curves are shown in Fig 1C and S4A Fig. Control experiments are shown in S2–S5 Figs.”

HEK293 cells = conditions: oxytocin: ref Burger, Fahrenholz et al. 1999, Ma, Hashii et al. 2013, vasopressin: ref Burger; cited from earlier work
Excerpt: (§2) We have edited this last sentence of the abstract to: “Inotocin signaling thereby likely contributes to behavioral individuality an ...

[3] = system: untransfected HEK293 cell membranes; conditions: ref Jasper, Harrell et al. 1995; cited from earlier work
Excerpt: as §2

beetle inotocin receptor = conditions: CHO cells; ref Stafflinger, Hansen et al. 2008; cited from earlier work
Excerpt: as §2

itcR from Lasius ants = conditions: CHO cells; ref Koto, Motoyama et al. 2019; cited from earlier work
Excerpt: as §2

Chain of O. biroi inotocin receptor (ObiroiItr_A) (A0A8F5LPT9 entry or part of it): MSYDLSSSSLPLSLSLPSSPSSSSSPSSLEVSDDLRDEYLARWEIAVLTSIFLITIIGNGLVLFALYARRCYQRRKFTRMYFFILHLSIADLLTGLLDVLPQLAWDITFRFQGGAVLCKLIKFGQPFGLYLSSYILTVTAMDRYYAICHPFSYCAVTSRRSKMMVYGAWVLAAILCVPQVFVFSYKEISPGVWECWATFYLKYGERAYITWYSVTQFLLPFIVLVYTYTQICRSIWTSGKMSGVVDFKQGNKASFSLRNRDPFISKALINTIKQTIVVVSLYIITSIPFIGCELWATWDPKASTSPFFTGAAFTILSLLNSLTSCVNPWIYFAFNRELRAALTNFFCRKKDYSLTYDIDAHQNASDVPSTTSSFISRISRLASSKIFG

Q: For Nc1ncnc2c1ncn2[C@@H]1O[C@H](COP(=O)(O)OP(=O)(O)OP(=O)(O)O)[C@@H](O)[C@H]1O [ATP, reference compound], which “calcium response” value [1] is on record?
A: are healthy and show calcium responses

Q: Which EC50 [2] does the source give for N=C(N)NCCC[C@H](NC(=O)[C@@H]1CCCN1C(=O)[C@@H]1CSSC[C@H](N)C(=O)N[C@@H](Cc2ccc(O)cc2)C(=O)N[C@@H](Cc2ccccc2)C(=O)N[C@@H](CCC(N)=O)C(=O)N[C@@H](CC(N)=O)C(=O)N1)C(=O)NCC(N)=O [AVP] here?
A: 12.6 µM

Q: What about the “calcium response” value ([2]; listed as vasopressin) of the same molecule?
A: also elicit calcium responses; also recorded: also produced calcium transients

Q: What about the LogEC50 ([2]; S4C Fig, AVP, SE 0.09024, 95% CI -5.083 to -4.715) of the same molecule?
A: -4.899

Q: What about the HillSlope ([2]; S4C Fig, AVP, SE 0.1917, 95% CI 0.6094 to 1.391) of the same molecule?
A: 1

Q: What about the “calcium responses of untransfected and mock transfected HEK293 cells” value (HEK293 cells) of the same molecule?
A: do not show calcium

Q: And the “binding of radiolabeled peptide” value [3]?
A: do not bind

Q: Which results are given for CC[C@H](C)[C@@H]1NC(=O)[C@H](Cc2ccc(O)cc2)NC(=O)[C@@H](N)CSSC[C@@H](C(=O)N2CCC[C@H]2C(=O)N[C@@H](CC(C)C)C(=O)NCC(N)=O)NC(=O)[C@H](CC(N)=O)NC(=O)[C@H](CCC(N)=O)NC1=O [oxytocin]?
A: EC50 [2]: 0.835 µM; calcium response [2]: also elicit calcium responses; also recorded: also produced calcium transients; HillSlope ([2]; S4B Fig, oxytocin, SE 0.05165, 95% CI 0.5075 to 0.7181): 0.6128; LogEC50 ([2]; S4B Fig, oxytocin, X data log of Molar_Oxytocin, SE 0.0661, 95% CI -6.213 to -5.944): -6.078; calcium responses of untransfected and mock transfected HEK293 cells (HEK293 cells): do not show calcium; receptor response (beetle inotocin receptor): responds; receptor response (itcR from Lasius ants): respond; binding of radiolabeled peptide [3]: do not bind

Q: Which “calcium response” value [2] does the source give for “NRPCGLTCI [scrambled control peptide, scrambled version of inotocin (…) as negative control with identical amino acid composition]” here?
A: No Ca^2+ influx is detected
